From US20130344166A1, “TOPICAL MIXTURE AND METHOD FOR DERMAL APPLICATION TO REMOVE EXCESS IRON AND OTHER HEAVY METALS FROM CELLULAR TISSUE” (priority 2012, published 2013)

Experiments:
[1] = tested on: excess Iron within the cells; assay: Tests of trivalent Chromium on excess Iron within the cells of humans; assay type: in vivo; conditions: absorbed into the bloodstream and delivered to the individual cells of humans
Description: Also included in the present invention is trivalent Chromium. As currently contemplated, the Chromium will be in the form of Chromium Picolinate, Chromium Polynicotinate, or Chromium Chloride. The essential element is trivalent Chromium. The choice of Chromium Picolinate, Chromium Polynicotinate, or Chromium Chloride has been made by the inventors because they are readily, commercially available in most health food stores, pharmacies, and other sources of dietary supplements. […] This is a desirable treatment for people suffering from Diabetes and there are currently studies, which indicate that “Iron Loading” can possibly be attached to the occurrence of cancer. A possible alternative or compliment to the Chromium of the present invention is Vanadium in the form of Vanadyl Sulfate. A combination of both Chromium and Vanadium compounds have been utilized in some tests with desirable results.

[2] = Blood sugar level of a patient after application of the topical mixture to the skin; assay type: in vivo, human; conditions: presence of L-Histidine in the mixture
Description: The present invention is best practiced by application of the trivalent Chromium composition at least twice daily. Preferably the application will be made before sleep and early in the morning ideally before exercise. Although the present invention may be applied to the entire body it is recommended it be applied to the legs and groin area where easy access to a large number of blood vessels can be achieved. Additionally, the legs and groin area contained some of the most exercised muscles in the human body. An alternative carrier base can be achieved through infusion of the trivalent Chromium and other elements into a bar of soap so as to achieve even distribution over the entire body. FIGS. 1 and 2 and the charts below show the blood sugar level of a patient utilizing the present invention in accordance with the formulation set above. The blood sugar level can be seen to drop dramatically after application of the present invention to the surface of the skin.

| Compound | levels of excess Iron within the cells [1] | levels of blood sugar in patients [2] |
| --- | --- | --- |
| trivalent Chromium | reduces the levels of excess Iron within the cells |  |
| N[C@@H](Cc1c[nH]cn1)C(=O)O [L-Histidine] |  | beneficial to lowering the levels of blood sugar |
